From patent publication US9376700B2, “Methods of modifying N-termini of a peptide or protein using transferases” (The Trustees of the University of Pennsylvania, priority 2012, dated 2016)

Experiments:
Format in all cases: biochemical
[1] = molecular target: T1, E. coli aminoacyl transferase (AaT) (Escherichia coli, UniProt P0A8P1); assay: LysAlaAcm ligation assay: AaT-catalyzed transfer from aminoacyl adenosine donor to LysAlaAcm, HPLC at 325 nm; parameters: made in house; host or cells: E. coli BL21-Gold (DE3), plasmid pEG6, Ni-NTA purified; details: for Ligated Product Yield (%): 4 h; for Transfer to LysAlaAcm by AaT (in words): reactions analyzed after 4 h
Method: Each ligation reaction, 125 μL total volume, contained the following reagents: aminoacyl adenosine donor (1 mM), recombinant His10-tagged E. coli aminoacyl transferase (2.26 μM), and LysAlaAcm (100 μM) in the AaT Ligation Buffer (50 mM HEPES pH 8.0, 150 mm KCl, 10 mM MgCl2). The reaction mixtures were incubated at 37° C. for four hours and quenched with 1% acetic acid. The proteins were extracted from the reactions via acetone precipitation. The reactions were precipitated using 4× reaction volume of acetone and cooled at −20° C. for 1 h. Next, the reactions were centrifuged at 13,200 rpm at 4° C. for 20 min to separate the reaction from precipitated protein. The supernatant was transferred to fresh 1.5 mL centrifuge tubes and allowed for acetone evaporation overnight at room temperature. After acetone evaporation, the supernatant was dried in a Speedvac (Savant, Thermo Scientific, Fisher Inc.) for 30 min to remove residual acetone. The resulting reaction volume was dissolved up to 1.2 mL using Milli-Q water and analyzed by HPLC (gradient below) to determine ligation yield by integration of separated peak intensities monitored at 325 nm. Collected HPLC fractions were characterized through MALDI MS analysis. […] Reactions using Phe-pdCpA as donor were carried out in an identical fashion (Ellman, et al., 1991, Methods Enzymol. 202:301-336).
All HPLC analyses of LysAlaAcm ligations were monitored on an Agilent HPLC using a Waters C18 column (Milford, Mass.).
All HPLC analyses of LysAlaAcm ligations were monitored as described elsewhere herein (Gradient 1).
(§1) The extent of transfer was evaluated by HPLC analysis of reactions with adenosyl donor, AaT or BpT, and an aminocoumarin-labeled reporter peptide (for AaT, LysAlaAcm was used as previously described by Tirrell and co-workers; for BpT, AspAlaAcm was used in an analogous fashion) (Connor et al., 2008, ChemBioChem 9:366-369). Monitoring LysAlaAcm or AspAlaAcm acylation in crude reaction mixtures using absorbance at 325 nm conveniently eliminates background due to other proteins and nucleic acids, although some non-natural amino acids such as naphthylalanine (Nap) and methoxycoumarinylalanine (Mcm) also absorb in this range.
To evaluate substrate scope, reactions were analyzed after 4 h, when transfer should be complete for the fully enzymatic reaction with Phe tRNA synthetase (Connor et al., 2008, ChemBioChem 9:366-369).

V. vulnificus BpT = assay: AspAlaAcm ligation assay: BpT-catalyzed transfer from adenosyl donor to AspAlaAcm; details: single addition of donor, 100 μM AspAlaAcm, 2.26 μM BpT, standard BpT-catalyzed transfer conditions
Method: Ligation test reactions with V. vulnificus Bpt were conducted in a manner identical to the AaT LysAlaAcm ligation assay with the following exceptions, 2.26 μM BpT was used rather than 2.26 μM AaT, 100 μM AspAlaAcm was used rather than 100 μM LysAlaAcm, and BpT Ligation Buffer (50 mM HEPES, pH 8, 150 mM KO, 10 mM MgCl2) was used rather than AaT Ligation Buffer.
as §1

[2] = molecular target: T1, E. coli aminoacyl transferase (AaT); assay: A/AMP/ATP/pdCpA inhibition studies of ligation with Phe donor 4a; parameters: made in house; host or cells: E. coli BL21-Gold (DE3), plasmid pEG6, Ni-NTA purified; details: tested at 1 mM, 2.5 mM and 5 mM with Phe donor 4a
Method: Each ligation reaction was performed as described elsewhere herein.
To better understand limitations on the yield from AaT reactions, the possibilities of inhibition by hydrolyzed substrate or aminoacylated product were assessed. Since the acyl adenosine donor substrate is not regenerated during the reaction (unlike the aaRS/tRNA/AaT reaction), it was hypothesized that the adenosine byproduct might inhibit further acylation by binding to AaT. To investigate this possibility, adenosine was added to the reaction at varying concentrations and monitored the reaction timecourse by fluorescence spectroscopy and by HPLC.

[3] = single addition of 1 mM donor, 100 μM LysAlaAcm, 2.26 μM AaT, 37° C., no additive

T1 sequence (P0A8P1 whole entry): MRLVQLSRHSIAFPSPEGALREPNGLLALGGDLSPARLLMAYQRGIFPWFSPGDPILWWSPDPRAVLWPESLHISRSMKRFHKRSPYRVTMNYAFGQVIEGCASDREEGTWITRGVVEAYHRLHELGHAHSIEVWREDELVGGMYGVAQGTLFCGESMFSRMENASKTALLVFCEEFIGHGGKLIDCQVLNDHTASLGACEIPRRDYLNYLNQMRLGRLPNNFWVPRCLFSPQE

Compound | Ligated Product Yield (%) [1, 3] | Transfer to LysAlaAcm by AaT (in words) [1] | other results
CSSCC[C@H](N)C(=O)O[C@@H]1[C@H](O)[C@@H](CO)O[C@H]1n1cnc2c(N)ncnc21 [4n, (S)-(2R,3R,4R,5R)-2-(6-amino-9H-purin-9-yl)-4-hydroxy-5-(hydroxymethyl)tetrahydrofuran-3-yl 2-amino-4-(methyldisulfanyl)butanoate] | 27.8% | – | –
CSCC[C@H](N)C(=O)O[C@@H]1[C@H](O)[C@@H](CO)O[C@H]1n1cnc2c(N)ncnc21 [4j, (S)-(2R,3R,4R,5R)-2-(6-amino-9H-purin-9-yl)-4-hydroxy-5-(hydroxymethyl)tetrahydrofuran-3-yl 2-amino-4-(methylthio)butanoate] | 21.9% | – | –
CN[C@@H](Cc1ccccc1)C(=O)O[C@@H]1[C@H](O)[C@@H](CO)O[C@H]1n1cnc2c(N)ncnc21 [4e, (S)-(2R,3R,4R,5R)-2-(6-amino-9H-purin-9-yl)-4-hydroxy-5-(hydroxymethyl)tetrahydrofuran-3-yl 2-(methylamino)-3-phenylpropanoate] | 0.6 ± 0.1% | transferred, albeit with low yield | –
CC(C)C[C@H](N)C(=O)O[C@@H]1[C@H](O)[C@@H](CO)O[C@H]1n1cnc2c(N)ncnc21 [4b, (S)-(2R,3R,4R,5R)-2-(6-amino-9H-purin-9-yl)-4-hydroxy-5-(hydroxymethyl)tetrahydrofuran-3-yl 2-amino-4-methylpentanoate] | 80.4 ± 0.9% | transferred efficiently | Ligated Product Yield (%) (V. vulnificus BpT): 5%
COc1ccc2c(C[C@H](N)C(=O)O[C@@H]3[C@H](O)[C@@H](CO)O[C@H]3n3cnc4c(N)ncnc43)cc(=O)oc2c1 [4h, (S)-(2R,3R,4R,5R)-2-(6-amino-9H-purin-9-yl)-4-hydroxy-5-(hydroxymethyl)tetrahydrofuran-3-yl 2-amino-3-(7-methoxy-2-oxo-2H-chromen-4-yl)propanoate] | 5h not observed | too large | –
PheLysAlaAcm | – | – | Product inhibition of NapLysAlaAcm (5d) production from Nap-A (4d) ([1]; 100 μM (1 equiv) added, standard 4 h transfer assay): did not significantly inhibit
Nc1ncnc2c1ncn2[C@@H]1O[C@H](COP(=O)(O)OP(=O)(O)OP(=O)(O)O)[C@@H](O)[C@H]1O [ATP, adenosine triphosphate] | – | – | Inhibition of the reaction, comparison of adenosine compounds [2]: inhibited the reaction
Nc1ncnc2c1ncn2[C@@H]1O[C@H](CO)[C@@H](O)[C@H]1OC(=O)[C@@H](N)Cc1ccc(C(=O)c2ccccc2)cc1 [4i, (S)-(2R,3R,4R,5R)-2-(6-amino-9H-purin-9-yl)-4-hydroxy-5-(hydroxymethyl)tetrahydrofuran-3-yl 2-amino-3-(4-benzoylphenyl)propanoate] | 9.2 ± 0.3% | poor substrate | –
[N-]=[N+]=N[C@@H](Cc1ccccc1)C(=O)O[C@@H]1[C@H](O)[C@@H](CO)O[C@H]1n1cnc2c(N)ncnc21 [4g, (S)-(2R,3R,4R,5R)-2-(6-amino-9H-purin-9-yl)-4-hydroxy-5-(hydroxymethyl)tetrahydrofuran-3-yl 2-azido-3-phenylpropanoate] | 5g not observed^c | poor substrates | –
CC(=O)N[C@@H](Cc1ccccc1)C(=O)O[C@@H]1[C@H](O)[C@@H](CO)O[C@H]1n1cnc2c(N)ncnc21 [4f, (S)-(2R,3R,4R,5R)-2-(6-amino-9H-purin-9-yl)-4-hydroxy-5-(hydroxymethyl)tetrahydrofuran-3-yl 2-acetamido-3-phenylpropanoate] | 5f not observed | poor substrates | –
Nc1ncnc2c1ncn2[C@@H]1O[C@H](CO)[C@@H](O)[C@H]1OC(=O)[C@@H](N)Cc1ccc2ccccc2c1 [4d, (S)-(2R,3R,4R,5R)-2-(6-amino-9H-purin-9-yl)-4-hydroxy-5-(hydroxymethyl)tetrahydrofuran-3-yl 2-amino-3-(naphthalen-2-yl)propanoate] | 95.4 ± 0.4% | – | Ligated Product Yield (%) ([1]; single addition of donor, additive 100 μM PheLysAlaAcm): 93.8 ± 0.3%
CC(C)SSC[C@H](N)C(=O)O[C@@H]1[C@H](O)[C@@H](CO)O[C@H]1n1cnc2c(N)ncnc21 [4l, (R)-(2R,3R,4R,5R)-2-(6-amino-9H-purin-9-yl)-4-hydroxy-5-(hydroxymethyl)tetrahydrofuran-3-yl 2-amino-3-(isopropyldisulfanyl)propanoate] | 42.3% | – | Ligated Product Yield (%) (V. vulnificus BpT): 20%
CSSC[C@H](N)C(=O)O[C@@H]1[C@H](O)[C@@H](CO)O[C@H]1n1cnc2c(N)ncnc21 [4k, (R)-(2R,3R,4R,5R)-2-(6-amino-9H-purin-9-yl)-4-hydroxy-5-(hydroxymethyl)tetrahydrofuran-3-yl 2-amino-3-(methyldisulfanyl)propanoate] | 20.1% | – | –
